# Structures can show the parent of a compound that is named as a salt.
# System: B16F10 mouse melanoma cells
# Test: Subcutaneous B16F10 tumor growth in C57BL/6 mice
# Assay type: in vivo
# Protocol: FIG. 4. Therapeutic LXR Activation Inhibits Melanoma Tumor Growth. […] Representative tumor images shown correspond to tumors extracted at the final day (d12). n=10-18 (A), 8-10 (B). (C-E) Primary tumor growth by 1×10^6 MeWo (C), […] SK-Mel-334.2 (D), and 2×10^6 SK-Mel-2 (E) human melanoma cells subcutaneously injected into immunocompromised mice. […] Tumor images shown correspond to last day of measurements. n=6-34 (C), 8 (D), 5 (E). (F) 5×10^4 B16F10 cells were injected subcutaneously into C57BL/6-WT mice. Upon tumor growth to 150 mm^3, mice were fed continuously with a control chow or a chow containing GW3965 (150 mg/kg), and tumor growth was measured daily. n=6-13. […] Tumor volume was calculated as (small diameter)^2×(large diameter)/2. […] Scale bars, 5 mm (A-D), 50 μm (J, K), 25 μm (L).
# The mice were palpated daily for tumor formation and after detection of tumors measuring […] in volume, the mice were assigned to a control chow or a chow containing each respective LXR agonist: LXR-623 (20 mg/kg/day), WO-2007-002563 Ex. 19 (100 mg/kg/day), WO-2010-0138598 Ex. 9 (10 mg/kg/day or 100 mg/kg/day), or SB742881 (100 mg/kg/day). The LXR drug compounds were formulated in the mouse chow by Research Diets, Inc. Tumor dimensions were measured using digital calipers, and tumor volume was calculated as (small diameter)^2×(large diameter)/2.
structure (smiles),measurement,setting,value
"O=C(O)Cc1cccc(OCCCN(Cc2cccc(C(F)(F)F)c2Cl)CC(c2ccccc2)c2ccccc2)c1 [GW3965 108, 3-[3-[N-(2-Chloro-3-trifluoromethylbenzyl)-(2,2-diphenylethyl)amino]propyloxy] phenylacetic acid hydrochloride]",primary tumor growth in vivo (FIG. 4),"mouse, in vivo",inhibit
same,reduction in the growth of established large B16F10 tumors,"tumors ~150 mm^3 at start, chow 150 mg/kg",roughly 50%

# Reference: patent publication US20190125745A1, “TREATMENT AND DIAGNOSIS OF CANCER” (Rgenix, Inc., priority 2014, published 2019)
